Some test systems named below: DU-145 prostate; NCI/ADR-RES ovarian; OVCAR-8 ovarian; NCI-H226 lung; M19-MEL melanoma; 786-0 renal; SNB-78 CNS; OVCAR-5 ovarian; SK-MEL-28 melanoma; MALME-3M melanoma.
Common to all, as to assay: NCI-60 cell line screen, 48 h

Consider 19 molecules from PubChem BioAssay (NCI).

“And” between values parts separate entries of the source, which are not always exact repeats. Equal values may be shown once.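 Grown in 96-well plates, cells were treated for 48 hours with each compound at five concentrations. Insufficient inhibition: endpoint recorded as highest concentration tested. The concentration for 50% growth inhibition is given as GI50. TGI: total growth inhibition.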

In the case of `CC1=CCCC2C1(C)CCC(C)C2(C)Cc1cc(O)ccc1O` (stereo not drawn), the TGI in the assay with DU-145 prostate is 30.4 µM; in the assay with NCI/ADR-RES ovarian, 18.2 µM and 18.9 µM; in the assay with OVCAR-8 ovarian it was 16.7 µM and 17.7 µM; in the assay on NCI-H226 lung it was 27.2 µM and 15.8 µM; in the assay on M19-MEL melanoma it was 20.8 µM; in the assay on 786-0 renal, 20.3 µM. Moreover, the TGI is 11 µM in the assay on SNB-78 CNS; 28.7 µM and 38.9 µM in the assay on OVCAR-5 ovarian; 29.9 µM and 31.1 µM in the assay on SK-MEL-28 melanoma; 29.2 µM and 35.7 µM in the assay on MALME-3M melanoma. Further, the GI50 in the assay with NCI-H226 lung is 5.5 µM; with MALME-3M melanoma, 14.7 µM.
For the molecule `O=C(O)COc1ccc(C(=O)/C(SS/C(C(=O)c2ccc(OCC(=O)O)c(Cl)c2Cl)=C2\C=C(c3ccc(Cl)cc3)SS2)=C2/C=C(c3ccc(Cl)cc3)SS2)c(Cl)c1Cl`, the TGI in the assay on OVCAR-8 ovarian is more than 100 µM; with NCI-H226 lung it was 18.7 µM; with M19-MEL melanoma, 20.6 µM; in the assay on 786-0 renal, 26.3 µM; with SNB-78 CNS it was 25.5 µM; in the assay with OVCAR-5 ovarian, more than 100 µM. For the same molecule, the figures for the TGI in the assay with SK-MEL-28 melanoma and with MALME-3M melanoma were 56.7 µM and more than 100 µM, respectively.
`CCCCNC(=O)C1C(=O)N(CCCC)C(=O)/C1=N\N` (stereo not drawn): the TGI in the assay with OVCAR-8 ovarian, in the assay with NCI-H226 lung, in the assay on M19-MEL melanoma, in the assay with 786-0 renal, in the assay with SNB-78 CNS and with OVCAR-5 ovarian was more than 100 µM throughout. For the same molecule, the TGI in the assay on SK-MEL-28 melanoma and in the assay with MALME-3M melanoma was more than 100 µM throughout.
Consider `Cc1nn2c(nc1=O)sc1ccc3ccccc3c12`, for which the TGI in the assay with OVCAR-8 ovarian, with NCI-H226 lung, in the assay on M19-MEL melanoma, in the assay on 786-0 renal, with SNB-78 CNS and in the assay with OVCAR-5 ovarian was more than 100 µM in each case. The TGI with SK-MEL-28 melanoma and in the assay on MALME-3M melanoma was more than 100 µM in each case.
Regarding `CCOC(=O)C(N=C(c1ccccc1)c1ccccc1)N(C(=O)OC(C)(C)C)C(=O)OC(C)(C)C` (stereo not drawn), the TGI in the assay on OVCAR-8 ovarian, with NCI-H226 lung, in the assay with M19-MEL melanoma, in the assay with 786-0 renal, in the assay on SNB-78 CNS and in the assay on OVCAR-5 ovarian was more than 100 µM each time. The TGI in the assay on SK-MEL-28 melanoma and in the assay on MALME-3M melanoma was more than 100 µM throughout.
Regarding `O=C1NC2C(=CC(O)C(O)C2O)c2cc3c(cc21)OCO3` (stereo not drawn), the TGI in the assay with DU-145 prostate was 1.83 µM; in the assay with NCI/ADR-RES ovarian, 0.561 µM and 3.38 µM; in the assay with OVCAR-8 ovarian, 2.25 µM and 1.72 µM; in the assay with NCI-H226 lung, 4.46 µM and 2.34 µM; in the assay on M19-MEL melanoma, 1.72 µM and 1.53 µM; with 786-0 renal, 4.93 µM. Also, the TGI in the assay on SNB-78 CNS was 4.94 µM and 11.2 µM; in the assay on OVCAR-5 ovarian, 4.14 µM and 11.4 µM; in the assay on SK-MEL-28 melanoma, 2.06 µM and 2.88 µM; in the assay on MALME-3M melanoma, 1.29 µM and 1.86 µM. Moreover, the GI50 in the assay on NCI/ADR-RES ovarian was 0.152 µM; in the assay on OVCAR-8 ovarian, 0.344 µM and 0.171 µM; in the assay with NCI-H226 lung, 0.598 µM and 0.388 µM; in the assay on M19-MEL melanoma, 0.353 µM and 0.282 µM; in the assay on 786-0 renal, 0.544 µM; with SNB-78 CNS it was 0.456 µM and 0.426 µM. The GI50 is 0.802 µM in the assay on OVCAR-5 ovarian; 0.201 µM in the assay with SK-MEL-28 melanoma; 0.426 µM and 0.193 µM in the assay on MALME-3M melanoma.
Take `COc1cc2c(cc1OC)CC(=O)Nc1cc(OC)c(OC)cc1CC2`: the TGI in the assay with OVCAR-8 ovarian, in the assay with NCI-H226 lung, with M19-MEL melanoma, with 786-0 renal, with SNB-78 CNS and with OVCAR-5 ovarian was more than 100 µM in each case. Also, the TGI is more than 100 µM in the assay on SK-MEL-28 melanoma and 99 µM with MALME-3M melanoma.
Turning to `Nc1nc(N)c(-c2ccccc2)c(C(=O)Nc2ccccc2)n1`, the TGI with OVCAR-8 ovarian, with NCI-H226 lung, in the assay with M19-MEL melanoma, in the assay with 786-0 renal, in the assay with SNB-78 CNS and in the assay with OVCAR-5 ovarian was more than 100 µM in each case. In addition, the TGI with SK-MEL-28 melanoma and in the assay on MALME-3M melanoma was more than 100 µM each time.
As for `O=c1c2ccccc2nc(/C=C(\O)c2ccncc2)n1-c1ccc(Cl)cc1`, the TGI in the assay on OVCAR-8 ovarian, in the assay on NCI-H226 lung, in the assay with M19-MEL melanoma, in the assay on 786-0 renal, in the assay on SNB-78 CNS and in the assay on OVCAR-5 ovarian was more than 100 µM in each case. Further, the TGI with SK-MEL-28 melanoma and in the assay with MALME-3M melanoma was more than 100 µM throughout.
For `COC(=O)c1ccccc1N1C(=O)Cc2ccccc2C1=O`, the TGI with OVCAR-8 ovarian, in the assay with NCI-H226 lung, in the assay with M19-MEL melanoma, with 786-0 renal, in the assay with SNB-78 CNS and with OVCAR-5 ovarian was more than 100 µM in each case. Also, the TGI with SK-MEL-28 melanoma and in the assay on MALME-3M melanoma was more than 100 µM throughout.
For the molecule `O=C(OC1CCC2OOC1O2)c1ccc([N+](=O)[O-])cc1` (stereo not drawn), the TGI with OVCAR-8 ovarian, in the assay on NCI-H226 lung, in the assay with M19-MEL melanoma, with 786-0 renal, in the assay on SNB-78 CNS and with OVCAR-5 ovarian was more than 100 µM in each case. The TGI in the assay on SK-MEL-28 melanoma and in the assay on MALME-3M melanoma was more than 100 µM each time.
`NC1CCCCC1N.O=[Se]([O-])[O-].[Pt+4]` (stereo not drawn): the GI50 in the assay on OVCAR-8 ovarian was 0.922 µM; in the assay with NCI-H226 lung, 6.42 µM; in the assay with M19-MEL melanoma, 0.412 µM; with 786-0 renal it was 0.0552 µM; in the assay on SNB-78 CNS, 69.8 µM; in the assay on OVCAR-5 ovarian, 1.83 µM. The values for the GI50 in the assay on SK-MEL-28 melanoma and with MALME-3M melanoma were 2.01 µM and 0.986 µM, respectively. Besides, the TGI with OVCAR-8 ovarian is more than 100 µM; in the assay with NCI-H226 lung, 29.3 µM; in the assay with M19-MEL melanoma, 15.5 µM; in the assay on 786-0 renal, 20.3 µM; with SNB-78 CNS, more than 100 µM; in the assay on OVCAR-5 ovarian it was 27.9 µM. Moreover, the figures for the TGI with SK-MEL-28 melanoma and with MALME-3M melanoma were 32.9 µM and 5.26 µM, respectively.
For the molecule `O=[N+]([O-])c1cc([N+](=O)[O-])c(/C=C/c2ccc(Cl)c(Cl)c2)cc1/C=C/c1ccc(Cl)c(Cl)c1`, the TGI with OVCAR-8 ovarian is more than 100 µM; with NCI-H226 lung, 66.3 µM; in the assay with M19-MEL melanoma, 46.1 µM; in the assay with 786-0 renal, 60.3 µM; in the assay with SNB-78 CNS it was more than 100 µM; in the assay with OVCAR-5 ovarian, more than 100 µM. Further, the TGI in the assay on SK-MEL-28 melanoma is 59.2 µM; in the assay on MALME-3M melanoma, 56.3 µM.
In the case of `O=C(NC(=O)c1ccccc1[N+](=O)[O-])Nc1ccc(Oc2ncc(Cl)cn2)c([N+](=O)[O-])c1`, the TGI was more than 100 µM in the assay on DU-145 prostate; 3.15 µM with NCI/ADR-RES ovarian; more than 100 µM in the assay with OVCAR-8 ovarian; 1.07 µM with NCI-H226 lung; more than 100 µM in the assay with M19-MEL melanoma; more than 100 µM with 786-0 renal. Moreover, the TGI in the assay on SNB-78 CNS, in the assay with OVCAR-5 ovarian and in the assay on MALME-3M melanoma was more than 100 µM each time.
On to `O=C(NCc1cccnc1)C1COc2cc(-c3cc(=O)c4ccccc4o3)ccc2O1` (stereo not drawn), for which the TGI was more than 55 µM with OVCAR-8 ovarian; more than 57.1 µM with NCI-H226 lung; more than 100 µM with M19-MEL melanoma; more than 81.7 µM with 786-0 renal; more than 100 µM in the assay with SNB-78 CNS; more than 100 µM in the assay with OVCAR-5 ovarian. Also, the TGI in the assay on SK-MEL-28 melanoma was more than 28.7 µM; with MALME-3M melanoma, more than 100 µM.
For the molecule `Cc1cc(C)n(-c2ccnc3cc(Cl)ccc23)n1`, the TGI with OVCAR-8 ovarian, in the assay with NCI-H226 lung, in the assay with M19-MEL melanoma, in the assay with 786-0 renal, in the assay with SNB-78 CNS and with OVCAR-5 ovarian was more than 100 µM throughout. The TGI in the assay on SK-MEL-28 melanoma and with MALME-3M melanoma was more than 100 µM throughout.
With `O=C(O)C(C(=O)O)P(=S)(S)c1ccccc1` (stereo not drawn), the TGI with DU-145 prostate, in the assay on NCI/ADR-RES ovarian, in the assay with OVCAR-8 ovarian, with NCI-H226 lung, in the assay with M19-MEL melanoma and with 786-0 renal was more than 100 µM each time. The TGI in the assay on SNB-78 CNS, in the assay on OVCAR-5 ovarian, in the assay with SK-MEL-28 melanoma and in the assay with MALME-3M melanoma was more than 100 µM throughout.
For the molecule `C(=N\Nc1ccccc1)/c1nc2ccccc2nc1/C=N/Nc1ccccc1`, the TGI in the assay on OVCAR-8 ovarian turned out to be 17 µM; in the assay on NCI-H226 lung it was 34.3 µM; with M19-MEL melanoma it was 41.1 µM; in the assay on 786-0 renal, 29.5 µM; with SNB-78 CNS, 42.7 µM; in the assay with OVCAR-5 ovarian, 84.9 µM. The TGI in the assay on SK-MEL-28 melanoma is 31.7 µM; in the assay on MALME-3M melanoma, 41.6 µM.
`Nc1nc(Cl)cc(NCC(O)CO)n1` (stereo not drawn): the TGI in the assay on OVCAR-8 ovarian, in the assay on NCI-H226 lung, in the assay with M19-MEL melanoma, with 786-0 renal, in the assay with SNB-78 CNS and in the assay on OVCAR-5 ovarian was more than 100 µM in each case. The TGI in the assay with SK-MEL-28 melanoma and with MALME-3M melanoma was more than 100 µM in each case.
